Test systems include A549; COLO 205; HCT-15; HL-60; HOP-62; HT-29; IGROV-1; K562; KM12; NCI-H23; RPMI-8226; SF-268; SF-295; SK-MEL-5; TK-10; SW-620.
Common to all, as to experiment: DTP human tumour cell line panel, 48 h

Structures are written as SMILES.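 Grown in 96-well plates, cells were treated for 48 hours with each compound at five concentrations. Insufficient inhibition: endpoint recorded as highest concentration tested. At the GI50, growth is halved.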 The source made the active and inactive calls. No stated cut-off is given here; in the data, active = GI50 up to about 1.1 µM and inactive = higher. Bounds are passed on as bounds.

Usually GI50 stands for the concentration giving 50% growth inhibition.

Regarding `O=C(CSc1nnc(Cc2ccccc2)o1)Nc1cccc([N+](=O)[O-])c1`, the GI50 in the experiment with A549 was > 100 µM (inactive); in the experiment on COLO 205, > 100 µM (inactive); in the experiment on HCT-15, > 100 µM; in the experiment on HL-60, > 100 µM (inactive); with HOP-62, > 100 µM (inactive); in the experiment with HT-29, > 100 µM (inactive). The GI50 in the experiment with IGROV-1, in the experiment on K562, in the experiment with KM12, in the experiment with NCI-H23, in the experiment on RPMI-8226 and in the experiment with SF-268 was > 100 µM (inactive) in each case. The GI50 with SF-295, with SK-MEL-5 and in the experiment with TK-10 was > 100 µM (inactive) throughout.

On to `CCOc1ccc(NCC(=O)N2CC(=O)Nc3ccccc32)cc1`, for which the GI50 is > 100 µM (inactive) with A549; > 100 µM (inactive) with COLO 205; > 100 µM in the experiment on HCT-15; > 100 µM (inactive) in the experiment on HL-60; > 100 µM (inactive) with HOP-62; > 100 µM (inactive) in the experiment on HT-29. The GI50 in the experiment with K562, in the experiment with KM12, with NCI-H23, in the experiment with RPMI-8226, in the experiment on SF-268 and in the experiment with SF-295 was > 100 µM (inactive) throughout. Further, the GI50 in the experiment with SK-MEL-5, in the experiment on SW-620 and with TK-10 was > 100 µM (inactive) throughout.

Consider `COc1cc(NC(C)=O)c2[nH]c3c(C)cc(NC(C)=O)c(C)c3c2c1`, for which the GI50 in the experiment with A549 is > 100 µM (inactive); in the experiment on COLO 205, > 100 µM (inactive); with HCT-15, > 100 µM; with HL-60, > 100 µM (inactive); in the experiment with HT-29, > 100 µM (inactive); in the experiment with IGROV-1, > 100 µM (inactive). For the same molecule, the GI50 in the experiment with K562, in the experiment on KM12, in the experiment with NCI-H23, in the experiment on RPMI-8226, in the experiment with SF-268 and with SF-295 was > 100 µM (inactive) each time. Besides, the GI50 in the experiment with SK-MEL-5, with SW-620 and in the experiment on TK-10 was > 100 µM (inactive) throughout.

As to `C/C(CC(=O)Nc1ccc(Cl)cc1)=N\NC(=O)C[n+]1ccccc1`, the GI50 in the experiment on A549, in the experiment with COLO 205, in the experiment on HL-60, in the experiment on HOP-62, with HT-29 and in the experiment on IGROV-1 was > 100 µM (inactive) throughout. Also, the GI50 with K562, in the experiment on KM12, in the experiment with NCI-H23, in the experiment on RPMI-8226, with SF-268 and in the experiment on SF-295 was > 100 µM (inactive) each time. In addition, the GI50 with SK-MEL-5, with SW-620 and in the experiment with TK-10 was > 100 µM (inactive) throughout.

As to `CCOC(=O)C1(C#N)C(c2ccccc2)CC(O)(c2ccc([N+](=O)[O-])cc2)C(C(=O)c2ccc([N+](=O)[O-])cc2)C1c1ccccc1` (stereo not given), the GI50 in the experiment on A549 is > 100 µM (inactive); with COLO 205, > 100 µM (inactive); in the experiment on HCT-15, > 100 µM; with HL-60 it was > 100 µM (inactive); in the experiment on HOP-62, > 100 µM (inactive); in the experiment with HT-29, > 100 µM (inactive). Besides, the GI50 is > 100 µM (inactive) in the experiment with IGROV-1; > 100 µM (inactive) in the experiment on K562; > 100 µM (inactive) in the experiment with KM12; 42.2 µM (inactive) in the experiment with NCI-H23; > 100 µM (inactive) in the experiment on RPMI-8226; > 100 µM (inactive) in the experiment on SF-268. Further, the GI50 with SF-295, in the experiment on SW-620 and with TK-10 was > 100 µM (inactive) each time.

Take `COC(=O)C(CC(C)C)NC(=O)NC12CC3CC(CC(F)(C3)C1)C2` (stereo not given): the GI50 in the experiment with A549, with COLO 205, in the experiment on HL-60, in the experiment on HOP-62, in the experiment on HT-29 and in the experiment on IGROV-1 was > 100 µM (inactive) each time. Besides, the GI50 in the experiment on K562, in the experiment on KM12, in the experiment on NCI-H23, with RPMI-8226, in the experiment with SK-MEL-5 and in the experiment on SW-620 was > 100 µM (inactive) throughout. Moreover, the GI50 in the experiment with TK-10 is > 100 µM (inactive).

Turning to `Cc1c(C)c2cc3c(=O)c(CCl)coc3c(C)c2oc1=O`, the GI50 in the experiment on A549 was > 100 µM (inactive); in the experiment with COLO 205, > 100 µM (inactive); with HCT-15, > 100 µM; in the experiment on HL-60, > 100 µM (inactive); in the experiment on HOP-62, > 100 µM (inactive); with IGROV-1, > 100 µM (inactive). Besides, the GI50 with K562 was > 100 µM (inactive); with KM12, > 100 µM (inactive); in the experiment with NCI-H23, > 100 µM (inactive); in the experiment with RPMI-8226, 75 µM (inactive); in the experiment with SF-268 it was > 100 µM (inactive); in the experiment on SF-295, > 100 µM (inactive). Also, the GI50 in the experiment on SK-MEL-5, with SW-620 and in the experiment with TK-10 was > 100 µM (inactive) in each case.

For `CC(C)=CCc1c(O)cc(O)c2c1OC(c1ccc(O)cc1)C(O)C2=O` (stereo not given), the GI50 in the experiment with A549 was 26.1 µM (inactive); in the experiment with COLO 205, 31 µM (inactive); in the experiment on HCT-15 it was 21.7 µM; in the experiment on HOP-62, 19.3 µM (inactive); with HT-29, 20.9 µM (inactive); with IGROV-1, 32 µM (inactive). Besides, the GI50 in the experiment on K562 was 20.2 µM (inactive); in the experiment on KM12 it was 26.5 µM (inactive); in the experiment on NCI-H23 it was 18.2 µM (inactive); in the experiment with SF-268, 32.1 µM (inactive); in the experiment on SF-295, 27.5 µM (inactive); in the experiment with SK-MEL-5, 22.3 µM (inactive). Also, the GI50 in the experiment on SW-620 was 36.4 µM (inactive); with TK-10 it was 24.9 µM (inactive).

As for `CC(=O)OC1CC2OC(Cc3ccccc32)O1` (stereo not given), the GI50 with A549, with COLO 205, with HL-60, with HOP-62, in the experiment with HT-29 and in the experiment with IGROV-1 was > 100 µM (inactive) in each case. The GI50 was > 100 µM (inactive) in the experiment on K562; > 100 µM (inactive) with KM12; > 100 µM (inactive) with NCI-H23; > 100 µM (inactive) in the experiment with RPMI-8226; > 100 µM (inactive) with SF-268; 65.3 µM (inactive) with SF-295. Further, the GI50 with SW-620 and in the experiment on TK-10 was > 100 µM (inactive) in each case.

For the molecule `O=C(C=P(c1ccccc1)(c1ccccc1)c1ccccc1)CC(=S)CC(=O)C=P(c1ccccc1)(c1ccccc1)c1ccccc1`, the GI50 with A549 was 4.17 µM (inactive); with COLO 205, 1.89 µM (inactive); with HCT-15, 15.3 µM; in the experiment on HL-60, 1.98 µM (inactive); with HOP-62, 8.04 µM (inactive); in the experiment with HT-29, 4.14 µM (inactive). Besides, the GI50 in the experiment with IGROV-1 was 4.66 µM (inactive); with K562, 2.47 µM (inactive); with KM12, 3.81 µM (inactive); with NCI-H23, 3.14 µM (inactive); with RPMI-8226, 2.24 µM (inactive); in the experiment with SF-268 it was 5.19 µM (inactive). Also, the GI50 is 3.16 µM (inactive) in the experiment with SF-295, 2.81 µM (inactive) in the experiment with SK-MEL-5, 4.29 µM (inactive) in the experiment on SW-620 and 7.96 µM (inactive) with TK-10.

`CC(C)OC(=O)C1Cc2c([nH]c3ccccc23)C(c2ccccc2)N1` (stereo not given): the GI50 is 66.1 µM (inactive) in the experiment with A549; > 100 µM (inactive) with COLO 205; 75.3 µM in the experiment on HCT-15; 33 µM (inactive) in the experiment with HL-60; 23.4 µM (inactive) with HOP-62; 98.4 µM (inactive) in the experiment on HT-29. Besides, the GI50 with IGROV-1 was > 100 µM (inactive); in the experiment on K562 it was 50.1 µM (inactive); with KM12, 97.1 µM (inactive); in the experiment with NCI-H23 it was 67.1 µM (inactive); with RPMI-8226, 84.9 µM (inactive); in the experiment with SF-268, 56.9 µM (inactive). Further, the GI50 in the experiment on SF-295 is > 100 µM (inactive); in the experiment with SK-MEL-5, 91.2 µM (inactive); in the experiment on SW-620, > 100 µM (inactive); in the experiment with TK-10 it was > 100 µM (inactive).

Take `O=C1NC2OC(C(O)CO)C(O)C2O1` (stereo not given): the GI50 in the experiment on A549 is > 100 µM (inactive); with COLO 205, > 100 µM (inactive); in the experiment with HCT-15, > 100 µM; in the experiment on HL-60, > 100 µM (inactive); in the experiment on HT-29 it was > 100 µM (inactive); with IGROV-1 it was > 100 µM (inactive). In addition, the GI50 in the experiment on K562, in the experiment on KM12, in the experiment with NCI-H23, in the experiment with SF-268, in the experiment with SF-295 and in the experiment with SK-MEL-5 was > 100 µM (inactive) throughout. The GI50 with SW-620 and in the experiment with TK-10 was > 100 µM (inactive) each time.

As for `Cc1ccccc1NC(=O)C(=O)CC(=O)c1ccc([N+](=O)[O-])cc1`, the GI50 in the experiment with A549 was > 100 µM (inactive); in the experiment with COLO 205, > 100 µM (inactive); with HCT-15 it was > 100 µM; in the experiment with HOP-62, > 100 µM (inactive); in the experiment with HT-29 it was > 100 µM (inactive); with IGROV-1, > 100 µM (inactive). Also, the GI50 in the experiment on KM12, in the experiment with NCI-H23, in the experiment on RPMI-8226, with SF-268, in the experiment on SF-295 and in the experiment on SW-620 was > 100 µM (inactive) each time. In the experiment on TK-10, the GI50 was > 100 µM (inactive).

The values are drawn from ChEMBL document CHEMBL1201862, “PubChem BioAssay data set” (2004).
